According to paper PMC5737332:

B1: AATAAT_ATTATT hairpin (structured_DNA)
DNA: GGGGAATAATCGCGATTATTCCCCAATAATCGCGATTATT

How the values were obtained:
[1] = test system: AATT hairpin (DNA, hairpin) CGAATTCGTCTCCGAATTCG; assay: SPR (Biacore X-100); details: Na+ 200 mM; 25 °C; site 1 of 2; running buffer for compound titration not explicitly stated
[2] = test system: AATAAT_ATTATT hairpin (DNA, hairpin) GGGGAATAATCGCGATTATTCCCCAATAATCGCGATTATT; assay: SPR (Biacore X-100); details: Na+ 200 mM; 25 °C; site 1 of 2; running buffer for compound titration not explicitly stated
[3] = test system: (AT)4 hairpin (DNA, hairpin) CATATATATCCCCATATATATG; assay: SPR (Biacore X-100); details: Na+ 200 mM; 25 °C; site 1 of 2; running buffer for compound titration not explicitly stated
[4] = test system: AATAAT_ATTATT hairpin (DNA, hairpin) GGGGAATAATCGCGATTATTCCCCAATAATCGCGATTATT; assay: SPR competition; details: 200 mM NaCl, 3 mM EDTA, 10 mM HEPES pH 7.4, 0.05% P-20, 25 °C
[5] = test system: (CG)4 hairpin (DNA, hairpin) CGCGCGCGTTTTCGCGCGCG; assay: SPR (Biacore X-100); details: Na+ 200 mM; 25 °C; one-site fit; running buffer for compound titration not explicitly stated
[6] = biological target: HMGB1 box A and box B (rat, UniProt P63159 8-165); assay: SPR; K1, high-affinity site of two-site fit; SPR (Biacore X-100), HEPES 1 buffer: 10 mM HEPES, 3 mM EDTA, 200 mM NaCl, 0.05% P-20, pH 7.4, 25 C; details: protein: recombinant; tags: GST (GST-tagged construct in pGEX2T); label: 5'-biotin; hairpin as stated by the authors; loop underlining lost in text
Sequence of HMGB1 box A and box B (P63159 8-165): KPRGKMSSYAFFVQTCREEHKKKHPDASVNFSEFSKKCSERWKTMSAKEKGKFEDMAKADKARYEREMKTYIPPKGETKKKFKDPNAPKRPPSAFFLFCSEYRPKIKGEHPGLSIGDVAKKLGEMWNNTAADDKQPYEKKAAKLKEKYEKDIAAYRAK

| Molecule | K1 (KD) [1] [nM] | K1 (KD) [2] [nM] | K1 (KD) [3] [nM] | IC50 ([4]; displaces 2 μM HMGA1a(Δ50-91) protein) [nM] | IC50 ([4]; displaces 2 μM HMGB1 (box A+B) protein) [nM] | K (KD) [5] [nM] | Kd [6] [nM] |
| --- | --- | --- | --- | --- | --- | --- | --- |
| O=C(Nc1ccc(NC2=NCCN2)c(Cl)c1)c1ccc(NC2=NCCN2)cc1 | 262 | 430 | 650 | 6000 | 3400 | 6850 | – |
| B1 | – | – | – | – | – | – | 330 |
